Data from patent publication US8703114B2, “Conjugate of a polymer, an anti-angiogenesis agent and a targeting moiety, and uses thereof in the treatment of bone related angiogenesis conditions” (priority 2008, dated 2014).
pIC50: −log10 of the molar value. Like-named read-outs stand apart in the source and are kept apart here.

Tests used:
[1] = system: Saos-2 human osteosarcoma cells; experiment: Saos-2 cell proliferation assay; assay type: cell-based
Protocol: (§1) Human osteosarcoma Saos-2 or MG-63-Ras cells were plated at 2500 cells/well in DMEM supplemented with 5 FBS and incubated for 24 hours (37° C.; 5% CO2). The medium was then replaced with DMEM supplemented with 10% FBS. Cells were exposed to ALN, TNP-470, and HPMA copolymer-ALN-TNP-470 conjugate or with equivalent concentrations of combinations of free ALN and TNP-470 at serial dilutions. […] Control cells were grown in the presence or absence of growth factors. HUVEC or Saos-2 viable cells were counted by a Z1 Coulter® Particle Counter (Beckman Coulter™) or by XTT reagent respectively after 72 hours of incubation.

[2] = system: HUVEC; experiment: HUVEC cell proliferation assay; settings: for IC30 of HUVEC proliferation / IC70 of HUVEC proliferation: single treatment
Protocol: HUVEC were plated at 10,000 cells/well onto 24-well culture plates in EBM-2 supplemented with 5% FBS and incubated for 24 hours (37° C.; 5% CO2). Medium was replaced with 2.5% endothelial cell basal medium-2 (EBM-2) supplemented with 1% Endothelial cell growth supplement (ECGS). Human osteosarcoma Saos-2 or MG-63-Ras cells were plated at 2500 cells/well in DMEM supplemented with 5 FBS and incubated for 24 hours (37° C.; 5% CO2). The medium was then replaced with DMEM supplemented with 10% FBS. Cells were exposed to ALN, TNP-470, and HPMA copolymer-ALN-TNP-470 conjugate or with equivalent concentrations of combinations of free ALN and TNP-470 at serial dilutions. HUVEC were also incubated with or without 1 μM of cathepsin-K inhibitor III. Control cells were grown in the presence or absence of growth factors. HUVEC or Saos-2 viable cells were counted by a Z1 Coulter® Particle Counter (Beckman Coulter™) or by XTT reagent respectively after 72 hours of incubation.
IC50 represents the concentration of a drug that is required for 50% inhibition in vitro. The IC30, 50, 70 values of treatment with ALN, TNP-470 and their respective combinations from HUVEC proliferation assay were collected. IC30, 50, 70 values of TNP-470 and ALN were marked on X, Y axis respectively and a line which represents additive effect was drawn between each inhibitory concentration (IC). The combination index (CI) of each treatment was calculated according to the classic isobologram equation CI=[(D)1/(Dx)1]+[(D)2/(Dx)2] as previously described [Chou T. C. Pharmocol Rev 2006; 58:621-681]. Area on the right side of each IC additive line represents antagonist effect while the left side represents synergic effect.

[3] = system: HUVEC; experiment: HUVEC migration assay towards VEGF; assay type: cell-based, human
Protocol: Cell migration assays were performed using modified 8 μm Boyden chambers coated with 10 μg/ml fibronectin. […] Following incubation, cells were allowed to migrate to the underside of the chamber for 4 hours in the presence or absence of Vascular endothelial growth factor (VEGF) (20 ng/ml) in the lower chamber. Cells were then fixed with ice-cold […] and stained using Hema 3 Stain System. The stained migrated cells were imaged using Nikon TE2000E inverted microscope integrated with Nikon DS5 cooled CCD camera by 10× objective, brightfield illumination. Migrated cells from the captured images per membrane were counted using NIH image software. Migration was normalized to percent migration, with 100% representing VEGF dependent migration of cells which were not incubated with free or HPMA-conjugated ALN and TNP-470.

[4] = system: mCherry-labeled MG-63-Ras human osteosarcoma; experiment: Antitumor activity on MG-63-Ras human osteosarcoma in mice; assay type: in vivo, SCID mice; settings: day 19, 30 mg/kg q.o.d. 3 times s.c.
Protocol: SCID male were inoculated s.c. with 5×10^5 mCherry-labeled MG-63-Ras human osteosarcoma. Mice bearing 70 mm^3 tumors were injected s.c. with combination of free ALN and TNP-470 (1:1, 30 mg/kg), FITC-labeled HPMA copolymer-ALN-TNP-470 conjugate (30 mg/kg q.o.d.×3 times TNP-470-equivalent dose) or saline (n=5 mice/group). Therapy was initiated at a relatively early state (70 mm^3) in order to imitate a metastatic scenario as well as an early primary osteosarcoma. Tumor progression was monitored by caliper measurement (width×length^2×0.52) and by CRI™ Maestro non-invasive intravital imaging system. At termination, tumors were dissected, weighed and analyzed. Data is expressed as mean±standard error of the mean (s.e.m.).
CRI Maestro™ non-invasive fluorescence imaging system was used to follow tumor progression of mice bearing mCherry-labeled MG-63-Ras human osteosarcoma tumors and for biodistribution studies of FITC-labeled HPMA copolymer-ALN-TNP-470 conjugate. Mice were maintained on a non-fluorescent diet (Harlan) for the whole period of the experiment. Mice were anesthetized using ketamine (100 mg/kg) and xylazine (12 mg/kg), treated with a depilatory cream (Veet®) and placed inside the imaging system. Alternatively, selected organs from mice were dissected and placed inside the imaging system. […]

[5] = system: MG-63-Ras human osteosarcoma tumors; experiment: Immunohistochemistry of tumors (H & E, CD34 microvessel density); assay type: in vivo, mice
Protocol: Immunohistochemistry of tumor nodules was performed using 5 μm thick formalin-fixed, paraffin-embedded tissue sections. Paraffin sections were de-paraffinized, rehydrated, and stained by hematoxylin and eosin (H & E). For CD34 staining (an endothelial cell marker), slides were deparaffinized and pre-treated with 10 mM citrate, pH 6.0 for 50 min in a steam pressure cooker (Decloaking Chamber, BioCare Medical, Walnut Creek, Calif.). All further steps were performed at room temperature in a hydrated chamber. Slides were covered with Peroxidase Block (Merck, Germany) for 5 minutes to quench endogenous peroxidase activity, followed by incubation with 10% of rabbit serum in 50 mM Tris-HCl, pH 7.4, for 30 min to block non-specific binding sites. Primary rat anti-murine CD34 antibody (MEC 14.7 1:50 dilution; Abcam, Cambridge, Mass.) was applied in 1% rabbit serum in Tris-HCl, pH 7.4 at room temperature for 1 hour. Slides were washed in 50 mM TrisHCl, pH 7.4 and rabbit anti-rat antibody (1:750 dilution; Vector Laboratories, CA, USA) was applied for 30 minutes, followed by anti-rabbit horseradish peroxidase-conjugated antibody (ABC detection kit, Vector Laboratories, CA, USA). Following further washing, immunoperoxidase staining was developed using a ImmPACT™ DAB diluent kit (Vector Laboratories, CA, USA) per the manufacturer instructions and counterstained with methyl green. Microvessel density (MVD) was calculated as previously described [Weidner et al. 1991, N Engl J Med 324:1-8].

[6] = system: MG-63-Ras human osteosarcoma cells; experiment: MG-63-Ras cell proliferation assay; assay type: cell-based
Protocol: as §1

[7] = system: HUVEC; experiment: Capillary-like tube formation assay; assay type: cell-based, human
Protocol: The surface of 24-well plates was coated with Matrigel® basement membrane (50 μl/well; 10 mg/ml) on ice and was allowed to polymerize at 37° C. for 30 minutes. […] After 8 hours of incubation (37° C.; 5% CO2), wells were imaged using Nikon TE2000E inverted microscope integrated with Nikon DS5 cooled CCD camera by 4× objective, brightfield illumination. […]

[8] = system: VEGF-induced extravasation of Evans blue dye; experiment: Miles vascular permeability assay; assay type: in vivo, Balb/c mice; settings: 30 mg/kg TNP-470 equivalents s.c., assay three days later
Protocol: Balb/c male mice were injected subcutaneously (s.c.) with TNP-470, HPMA copolymer-ALN-TNP-470 conjugate (30 mg/kg TNP-470 equivalents) or saline (n=5 mice/group). Three days later, a modified Miles assay was performed as previously described [Claffey et al. 1996, Cancer Res 56: 172-181; Miles & Miles 1952, J Physiol 118:228-257]. Briefly, Evans blue dye (100 μl of a 1% solution in 0.9% NaCl) was injected into the retro-orbital plexus of the mice. Ten minutes later, 50 μl of human VEGF165 (1 ng/μl) or PBS were injected intradermally into the pre-shaved back skin. Twenty minutes later, the animals were killed, and an area of skin that included the entire injection site was removed. Evans blue dye was extracted from the skin by incubation with formamide for 5 days at room temperature, and the absorbance of the extracted dye was measured at 620 nm. Data is expressed as mean±standard error of the mean (s.e.m.).

[9] = Hydroxyapatite binding assay; settings: PBS pH 7.4
Protocol: In order to assess the ability of HPMA copolymer-ALN-TNP-470 conjugate to bind to bone mineral, its binding potency to hydroxyapatite (HA) was evaluated. HPMA copolymer-ALN-TNP-470 conjugate was dissolved in phosphate buffered saline (PBS), pH 7.4 (1 mg/ml). The conjugate solution (500 μl) was incubated with hydroxyapatite powder (15 mg), in 500 μl PBS, pH 7.4. HPMA copolymer-Gly-Phe-Leu-Gly was used as control. Incubated samples were centrifuged at 6000 RPM for 3 minutes and a sample from the upper layer (100 μl) was collected at selected time points. FPLC analysis using HighTrap desalting column (Amersham®) was used for detection of unbound conjugate in the samples (FPLC conditions: AKTA™ Purifier®, mobile phase 100% DDW, 2 ml/minute, 215 nm). Hydroxyapatite binding kinetic analysis of the conjugate was performed using the Unicorn® AKTA™ software. Areas under the curve (AUC) were calculated from chromatographs at each time point. AUC of each hydroxyapatite incubated conjugate chromatogram was normalized to percent AUC of conjugate sample in the absence of hydroxyapatite used as control.

[10] = Homo sapiens, HUVEC, read-out: IC50 of HUVEC proliferation
[11] = equivalent concentration 0.1 nM

## NCCCC(O)(P(=O)(O)O)P(=O)(O)O [ALN, (4-amino-1-hydroxybutylidene)bisphosphonic acid]
[1]
  Dose dependence of inhibition of Saos-2 proliferation: inhibited at a dose dependent manner
[2]
  Dose dependence of inhibition of ECGS-induced HUVEC proliferation: inhibited at a dose dependent manner
  IC30 of HUVEC proliferation: 10 µM
  IC70 of HUVEC proliferation: 90 µM
[2]; [10]
  pIC50: 4.30

## CO[C@@H]1[C@H](OC(=O)NC(=O)CCl)CC[C@]2(CO2)[C@H]1[C@@]1(C)O[C@@H]1CC=C(C)C [TNP-470]
[3]; equivalent concentrations of 0.1, 1 and 10 nM
  Inhibition of chemotactic migration response to VEGF: dramatically inhibited
[2]
  Inhibition of HUVEC proliferation, free vs conjugated TNP-470: inhibited similarly
  IC30 of HUVEC proliferation: 2.5e-07 µM
  IC70 of HUVEC proliferation: 1 µM
[2]; [10]
  pIC50: 10.00

## HPMA-Gly-Gly-Pro-Nle-ALN-TNP-470 [HPMA copolymer-ALN-TNP-470 conjugate]
[4]
  Tumor growth inhibition: 96%
[5]; CD34 staining
  Microvessel density (MVD): 32±9 microvessels/mm^2
  Reduction in microvessel density (MVD) vs control: 74%
[5]; mouse, in vivo
  Tumor histology (H & E): almost regressed
[1]
  pIC50: 4.52
[3]; [11]
  Inhibition of chemotactic migration response to VEGF: 18%
[3]; equivalent concentration 1 nM
  Inhibition of chemotactic migration response to VEGF: 35%
[3]; equivalent concentration 10 nM
  Inhibition of chemotactic migration response to VEGF: 61%
[6]
  pIC50: 5.00
[2]; ALN and TNP-470 equivalent concentrations
  Cytotoxic effect on HUVEC at doses higher than: > 10 nM
[2]; ALN-equivalent concentrations, 72 hours
  Concentrations inhibiting HUVEC proliferation in the presence of cathepsin K inhibitor III: higher than 4 μM
[2]; higher concentration in presence of inhibitor
  Shift of concentration inhibiting HUVEC proliferation in presence vs absence of cathepsin K inhibitor III: 4 logs
[2]; read-out: IC50 of ECGS-induced HUVEC proliferation, ALN and TNP-470 equivalent concentrations, 72 hours
  pIC50: 9.00
[2]; read-out: IC50 of HUVEC proliferation in the presence of cathepsin K inhibitor III, 1 μM cathepsin K inhibitor III
  pIC50: 5.38
[7]; equivalent concentration 0.01 nM
  Inhibition of capillary-like tube length vs untreated control: 29%
[7]; [11]
  Inhibition of capillary-like tube length vs untreated control: 54%
[7]; equivalent concentration 1 nM
  Inhibition of capillary-like tube length vs untreated control: 64%
[8]
  Inhibition of VEGF-induced extravasation of Evans blue dye vs vehicle: 92%
[9]; 2 minutes of incubation
  Conjugate bound to hydroxyapatite: 50%
[9]; plateau after 175 minutes of incubation
  Conjugate bound to hydroxyapatite: 92%
